Assay results taken from US4322411A, “Anti-inflammatory nucleosides” (Burroughs Wellcome Co., priority 1980, dated 1982).
Read-outs that look alike come from different tables or passages of the source.

Tests used:
Therapeutic index = conditions: in vivo
inflammation = assay: Anti-inflammatory effectiveness by route; assay type: in vivo; conditions: result in words
immune response = conditions: in vivo; cited from earlier work
[1] = Side effects (gastric damage, platelet aggregation, steroid side effects)
[2] = test system: established adjuvant arthritis; assay: Established adjuvant arthritis; assay type: in vivo, rat; conditions: for ED25: Rattus norvegicus, po, 1008 h, read-out: Established Arthritis ED25 on Day 42
Experimental: (§1) There were 5 animals in each drug-treated group. For developing adjuvant arthritis the drugs were administered in the diet from day 1 to day 16. For established adjuvant arthritis the drugs were administered from day 21 to day 42.

[3] = test system: carrageenan pleurisy (3 hour pleural exudate volume); assay: Duration of action of anti-inflammatory activity (Carrageenan Pleurisy Assay); assay type: in vivo, rat; conditions: for duration of action (time of drug administration prior to carrageenan injection at which inhibition of 3 hour pleural exudate volume declined to 40%): single oral pretreating dose
Experimental: Following the procedure previously described by Vinegar et al. in Proc. Soc. Exp. Biol. Med., 143, 711 (1973) and recently modified (Vinegar et al., Eur. J. Rheum. Inflam. 1, 204 (1978)) the acute anti-inflammatory activity of 3-deazaadenosine was compared with that of known anti-inflammatory drugs. The average 3 hr exudate volume for each drug-treated group was determined and the % inhibition relative to solvent-fed control animals calculated, the ED50 (mg/kg of body wt) being the dose required to reduce the 3 hr exudate volume by 50%. There were 5 animals in each drug-treated group and the control group.
Duration of action of anti-inflammatory activity of 3-deazaadenosine
By means of the Carrageenan Pleurisy Assay of Example 1 the duration of action of the test compounds after a single oral pretreating dose was determined. For 3-deazaadenosine the effect lasted for 14.9 hours at 6 mg/kg (p.o.) whilst for aspirin (150 mg/kg p.o.) and acetaminophen (220 mg/kg p.o.) the effect lasted […] and 2 hours, respectively. This value represents the time (hours) of drug administration prior to the injection of carrageenan in which the inhibition of the 3 hour pleural exudate volume declined to 40%.

Analgesic activity = conditions: in vivo
lipoxygenase pathway = assay: Inhibition of prostaglandin metabolism in vitro, lipoxygenase pathway; assay type: biochemical
Water solubility = assay type: physicochemical
cyclooxygenase pathway = assay: Inhibition of prostaglandin metabolism in vitro, cyclooxygenase pathway; assay type: biochemical
Antipyretic activity = conditions: in vivo
[4] = test system: carrageenan pleurisy (3 hr exudate volume); assay: Local anti-inflammatory activity: Carrageenan Pleurisy Assay (CPA), intrapleural; assay type: in vivo, rat; conditions: 3 hr Vol
Excerpt: Local Anti-Inflammatory Activity of 3-Deazaadenosine: Carrageenan Pleurisy Assay (CPA)
Following the procedure described by Vinegar et al., Eur. J. Rheum. Inflam. […] There were 5 animals in each drug-treated group and the control group.

Half life = conditions: in vivo
liver = assay: Liver damage in animal models; assay type: in vivo; conditions: in the animal models used
[5] = test system: developing adjuvant arthritis; assay: Developing adjuvant arthritis; assay type: in vivo, rat; conditions: for ED50: Rattus norvegicus, po, 384 h, read-out: Developing Arthritis ED50 on Day 16
Experimental: as §1

[6] = in vivo; cited from earlier work

Structure (SMILES): Nc1nccc2c1ncn2[C@@H]1O[C@H](CO)[C@@H](O)[C@H]1O [3-Deazaadenosine, 4-amino-1-β-D-ribofuranosyl-1H-imidazo[4,5-c]-pyridine]
- therapeutic index (Therapeutic index): high
- anti-inflammatory effectiveness by route (inflammation): effective orally, systemically and locally
- dose required for immunesuppression (immune response): more than 30 mg/kg
- side effects of the anti-inflammatory steroids [1]: free of the side effects of the anti-inflammatory steroids
- side effects associated with prostaglandin inhibitors (gastric damage, inhibition of platelet aggregation) ([1]; inferred from lack of inhibition of prostaglandin metabolism): free of the side effects
- ED25 ([2]; from day 21 to day 42, parentheses indicate an approximate value): ~18 mg/kg/day
- inhibition of established adjuvant arthritis ([2]; result in words): inhibit both developing and established adjuvant arthritis
- duration of action (time of drug administration prior to carrageenan injection at which inhibition of 3 hour pleural exudate volume declined to 40%) ([3]; 6 mg/kg p.o.): 14.9 h
- duration of action ([3]; general statement, no dose given): about 15 hours
- analgesic activity per se (Analgesic activity): has not analgesic activity per se
- inhibition of prostaglandin metabolism via lipoxygenase pathway (lipoxygenase pathway): does not inhibit
- water solubility (Water solubility): high
- inhibition of prostaglandin metabolism via cyclooxygenase pathway (cyclooxygenase pathway): does not inhibit
- antipyretic activity (Antipyretic activity): not antipyretic
- ED50 [4]: 0.05 mg/rat
- half life (Half life): short
- liver damage (liver): does not cause liver damage
- ED50 ([5]; in diet from day 1 to day 16): 8 ± 2.8 mg/kg
- inhibition of developing adjuvant arthritis ([5]; result in words): inhibit both developing and established adjuvant arthritis
- dose required for antiviral activity [6]: 100-200 mg/kg per day

Structure (SMILES): CC(=O)Oc1ccccc1C(=O)O [Aspirin, reference compound]
- ED25 [2]: < 150 mg/kg/day
- duration of action (time of drug administration prior to carrageenan injection at which inhibition of 3 hour pleural exudate volume declined to 40%) ([3]; 150 mg/kg p.o.): 35 h
- ED50 [4]: 0.04 mg/rat
- ED50 [5]: 150 ± 53.1 mg/kg

Structure (SMILES): C[C@]12CCC(=O)C=C1CC[C@@H]1[C@@H]2[C@@H](O)C[C@@]2(C)[C@H]1CC[C@]2(O)C(=O)CO [Hydrocortisone]
- ED50 [4]: < 0.1 mg/rat

Structure (SMILES): C[C@]12C=CC(=O)C=C1CC[C@@H]1[C@@H]2[C@@H](O)C[C@@]2(C)[C@H]1CC[C@]2(O)C(=O)CO [Prednisolone, reference compound]
- ED25 [2]: 0.2 mg/kg/day
- ED50 [5]: 1 mg/kg

Structure (SMILES): CC(=O)Nc1ccc(O)cc1 [acetaminophen, reference compound]
- duration of action (time of drug administration prior to carrageenan injection at which inhibition of 3 hour pleural exudate volume declined to 40%) ([3]; 220 mg/kg p.o.): 2 h
- liver damage (liver): cause liver damage
